Laboratory results taken from publication PMC6193035, “Novel small molecules affecting cell membrane as potential therapeutics for avian pathogenic Escherichia coli” (Scientific Reports, 2018).
Values after ≈ are worked out from the molar mass of the structure shown.

Key:
APEC O2-211 = experiment: MIC and MBC determination in M63 media; format: cell-based; conditions: Escherichia coli; APEC O2-211, M63 media
APEC O35 = experiment: MIC and MBC determination in M63 media; format: cell-based; conditions: Escherichia coli
APEC O18 = experiment: MIC and MBC determination in M63 media; format: cell-based; conditions: Escherichia coli
[1] = system: STEC O157 and O26 strains; experiment: Activity against STEC strains at 100 µM in M63 media; format: cell-based, Escherichia coli
APEC O78 [2] = experiment: Crystal violet (CV) uptake assay; format: cell-based, Escherichia coli; conditions: 2X MBC, 30 mins; P < 0.05, Student's t-test
Procedure: Membrane permeability assays (crystal violet (CV) uptake and loss of 260/280 nm absorbing materials) were conducted as described previously. […] CV uptake was measured using the formula: (OD DMSO − OD SM/OD DMSO × 100). Two independent experiments in duplicates were conducted.

APEC O78 [3] = experiment: Bacterial cytological profiling by confocal microscopy; format: cell-based, Escherichia coli; conditions: 2X MBC, 2 h
Procedure: Confocal microscopy was used for bacterial cytological profiling (BCP) to identify the cellular pathways targeted by SMs as described previously. […] After incubation, treated cultures were centrifuged, washed, and resuspended in 100 µL PBS. FM4-64 (#T13320 Molecular Probes/Invitrogen) (1 µg/mL) and SYTO-9 (#S34854 Molecular Probes/Invitrogen) (5 µM) were added to the bacterial cultures and incubated for 45 mins at room temperature with shaking at 150 rpm. Cultures were then centrifuged, washed, and resuspended in PBS to 1/10th volume of the original cultures.

APEC O8 = experiment: MIC and MBC determination in M63 media; format: cell-based; conditions: Escherichia coli
APEC O78 [4] = experiment: MIC and MBC determination in M63 media; format: cell-based, Escherichia coli; conditions: for MIC / MBC: Escherichia coli; for MBC: subculture on LB agar
Procedure: One microlitre SM of each concentration was transferred to each well of a 96-well plate containing 100 µL of the 0.05 OD600 adjusted APEC O78 culture in M63 media. Growth was monitored in Sunrise - Absorbance microplate reader as described above. MIC was indicated by lowest concentration of SM with non-elevated OD600 measurement. MBC was determined by absence of APEC growth on LB agar plate following subculture. […] Two independent experiments were conducted.

[5] = system: intracellular APEC O78 in Caco-2 cells; experiment: Intracellular survival assay; format: cell-based, Escherichia coli; conditions: for minimal effective concentration: Escherichia coli, O78, Caco-2, 6 h treatment, read-out: SMs intracellular APEC clearance concentration; for intracellular APEC clearance concentration as multiple of MIC (superscript): O78, Caco-2; for concentration at which the SM significantly (P < 0.01) reduced intracellular APEC (superscript of t-statistic): O78, Caco-2, 6 h
Method in brief: (§1)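 Mid-log APEC (O78, O1, O2) in antibiotic- and FBS-free medium infected HD11 or THP-1 macrophages for 1 h and Caco-2 epithelial cells for 3 h at MOI 10. Cells were lysed with 0.1% Triton X-100 and viable intracellular bacteria counted on LB agar versus 1% DMSO controls.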

[6] = system: intracellular APEC O1 in Caco-2 cells; experiment: Intracellular survival assay; format: cell-based, Escherichia coli; conditions: for minimal effective concentration: Escherichia coli, O1, Caco-2, 6 h treatment, read-out: SMs intracellular APEC clearance concentration; for concentration at which the SM significantly (P < 0.01) reduced intracellular APEC (superscript of t-statistic): O1, Caco-2, 6 h; for intracellular APEC clearance concentration as multiple of MIC (superscript): O1, Caco-2
Method in brief: as §1

APEC O78 [7] = experiment: Scanning electron microscopy; format: cell-based, Escherichia coli; conditions: 2X MBC
Procedure: The SMs treated APEC O78 cultures prepared above were also processed for scanning electron microscopy (SEM) as described previously. […] Briefly, one volume of bacterial culture was mixed with one volume of fixative (3% glutaraldehyde, 1% paraformaldehyde in 0.1 M potassium phosphate buffer, pH 7.2), and incubated at 4 °C overnight. The fixed bacterial cells were then centrifuged for 5 mins at 1,200 × g, washed twice with PBS, and resuspended in 1% osmium tetroxide for 1 h at room temperature in the dark, followed by serial dehydration of the sample in ethanol and platinum splatter-coating. Visualization and imaging of the sample was performed using a Hitachi S-4700 scanning electron microscope.

[8] = system: E. coli Nissle 1917 and E. coli G58-1; experiment: Effect against beneficial microbes; format: cell-based, Escherichia coli; conditions: 100 µM
Procedure: SMs were screened against different beneficial microbes to determine their specificity as described previously. SMs were added at 100 µM to 100 µL of 0.05 OD600 adjusted bacterial cultures in specific growth media in 96-well plate, and plate was incubated under indicated conditions. The specific growth media and conditions required for beneficial microbes limited the use of minimal media. Following incubation, endpoint OD600 was measured and cultures from the wells with non-elevated OD600 were plated on selective agar plates to determine the bactericidal effect.

| SMILES | MBC (APEC O2-211) | MIC (APEC O2-211) | MBC (APEC O35) | MIC (APEC O35) | MBC (APEC O18) | MIC (APEC O18) | bactericidal activity against STEC strains [1] | uptake of crystal violet compared with DMSO (APEC O78 [2]) | cytological profile (FM4-64 / SYTO-9 staining) (APEC O78 [3]) | MBC (APEC O8) | MIC (APEC O8) | MBC relative to MIC (APEC O78 [4]) | MIC (APEC O78 [4]) | MBC (APEC O78 [4]) | minimal effective concentration [5] | intracellular APEC clearance concentration as multiple of MIC (superscript) [5] | concentration at which the SM significantly (P < 0.01) reduced intracellular APEC (superscript of t-statistic) [5] | minimal effective concentration [6] | concentration at which the SM significantly (P < 0.01) reduced intracellular APEC (superscript of t-statistic) [6] | cell morphology in SEM (APEC O78 [7]) | also measured |
| --- | --- | --- | --- | --- | --- | --- | --- | --- | --- | --- | --- | --- | --- | --- | --- | --- | --- | --- | --- | --- | --- |
| COc1ccc(CCN(Cc2cc3c(cc2Cl)OCO3)CC2CCN(C)CC2)cc1 [SM11] | 100 µM (≈ 43.1 µg/mL) | 100 µM (≈ 43.1 µg/mL) | 200 µM (≈ 86.2 µg/mL) | 100 µM (≈ 43.1 µg/mL) | 200 µM (≈ 86.2 µg/mL) | 200 µM (≈ 86.2 µg/mL) | not cidal | increased the uptake of crystal violet | bright red foci at random positions throughout the cell indicating membrane defects (membrane pore formers) | 200 µM (≈ 86.2 µg/mL) | 200 µM (≈ 86.2 µg/mL) | identical to MIC | 100 µM (≈ 43.1 µg/mL) | 100 µM (≈ 43.1 µg/mL) | 100 µM | a (1X MIC) | b (1X MIC) | > 200 µM | b (1X MIC) |  |  |
| CC1CCC(C(C)C)C(OC(=O)Cn2c[n+](CC(=O)OC3CC(C)CCC3C(C)C)c3ccccc32)C1 (stereo not drawn) [SM4] | 25 µM | 25 µM | 25 µM | 25 µM | 50 µM | 25 µM |  |  | absence of FM4-64 stained membrane (membrane disruptors) | 25 µM | 25 µM |  | 25 µM | 50 µM | 50 µM | b (2X MIC) | a (0.5X MIC) | 100 µM | c (2XMIC) | severe wrinkling and multiple blebbing throughout the cells (membrane disruptors) | intracellular APEC clearance concentration as multiple of MIC (superscript) [6]: c (4X MIC) |
| CC1CCCN(CCC(=O)c2ccc(Br)cc2)C1 (stereo not drawn) [SM1] | 200 µM (≈ 62 µg/mL) | 200 µM (≈ 62 µg/mL) | 200 µM (≈ 62 µg/mL) | 200 µM (≈ 62 µg/mL) | 200 µM (≈ 62 µg/mL) | 200 µM (≈ 62 µg/mL) | not cidal | increased the uptake of crystal violet | filamentous or short rods (spheroplasts) morphology (PG synthesis inhibitors) | 200 µM (≈ 62 µg/mL) | 200 µM (≈ 62 µg/mL) | identical to MIC | 200 µM (≈ 62 µg/mL) | 200 µM (≈ 62 µg/mL) | 200 µM | a (1X MIC) | a (0.5X MIC) | > 400 µM | b (1X MIC) |  |  |
| COc1cc(CNCCc2ccc3ccccc3c2)ccc1OCC(O)CN1CCCC1 (stereo not drawn) [SM2] | 100 µM (≈ 43.5 µg/mL) | 100 µM (≈ 43.5 µg/mL) | 200 µM (≈ 86.9 µg/mL) | 100 µM (≈ 43.5 µg/mL) | 200 µM (≈ 86.9 µg/mL) | 100 µM (≈ 43.5 µg/mL) | not cidal | increased the uptake of crystal violet | bright red foci at random positions throughout the cell indicating membrane defects (membrane pore formers) | 200 µM (≈ 86.9 µg/mL) | 100 µM (≈ 43.5 µg/mL) | identical to MIC | 100 µM (≈ 43.5 µg/mL) | 100 µM (≈ 43.5 µg/mL) | 100 µM | a (1X MIC) | a (0.5X MIC) | > 200 µM | a (0.5X MIC) |  |  |
| CC(=O)OC(C(Br)C(=O)c1ccc([N+](=O)[O-])cc1)C(Cl)(Cl)Cl (stereo not drawn) [SM10] | 50 µM (≈ 21.7 µg/mL) | 25 µM (≈ 10.8 µg/mL) | 50 µM (≈ 21.7 µg/mL) | 25 µM (≈ 10.8 µg/mL) | 100 µM (≈ 43.3 µg/mL) | 25 µM (≈ 10.8 µg/mL) |  | increased the uptake of crystal violet | filamentous or short rods (spheroplasts) morphology (PG synthesis inhibitors) | 50 µM (≈ 21.7 µg/mL) | 50 µM (≈ 21.7 µg/mL) |  | 25 µM (≈ 10.8 µg/mL) | 50 µM (≈ 21.7 µg/mL) | 100 µM | c (4X MIC) | b (1X MIC) | 100 µM | b (1X MIC) | shortened cells (~0.5 µM) and blebbing at both cell poles | effect on E. coli Nissle 1917 and E. coli G58-1 [8]: did not have effect; intracellular APEC clearance concentration as multiple of MIC (superscript) [6]: c (4X MIC) |
| COc1cc(CNCCc2ccc(C)cc2)ccc1OCC(O)CN1CCCC1 (stereo not drawn) [SM3] | 100 µM (≈ 39.9 µg/mL) | 100 µM (≈ 39.9 µg/mL) | 200 µM (≈ 79.7 µg/mL) | 100 µM (≈ 39.9 µg/mL) | 100 µM (≈ 39.9 µg/mL) | 100 µM (≈ 39.9 µg/mL) |  | increased the uptake of crystal violet | bright red foci at random positions throughout the cell indicating membrane defects (membrane pore formers) | 100 µM (≈ 39.9 µg/mL) | 100 µM (≈ 39.9 µg/mL) | identical to MIC | 100 µM (≈ 39.9 µg/mL) | 100 µM (≈ 39.9 µg/mL) | 100 µM | a (1X MIC) | a (0.5X MIC) | > 200 µM | c (2XMIC) | blebbing and pore at single cell pole, respectively |  |
